Measured values reported in publication PMC7906415, “Metabolite profile of Nectandra oppositifolia Nees & Mart. and assessment of antitrypanosomal activity of bioactive compounds through efficiency analyses” (PLoS ONE, 2021).
Like-named read-outs stand apart in the source and are kept apart here.

What was measured:
[1] = tested on: Trypanosoma cruzi intracellular amastigotes; test: Activity against intracellular amastigotes of T. cruzi in infected peritoneal macrophages (EC50); type: cell-based, Trypanosoma cruzi (Y strain); conditions: for EC50: Trypanosoma cruzi, Peritoneal macrophage, in Mus musculus, read-out: EC50 ± SD; for EC50 / EC50 ± SD: 48 h; for SI (selectivity index): ratio CC50 against NCTC cells/EC50 against amastigote forms
Method: Trypanosoma cruzi trypomastigotes (Y strain) were routinely maintained in Rhesus monkey kidney cells (LLC-MK2 –ATCC CCL 7), using RPMI-1640 medium supplemented with 2% FBS at 37°C in a 5% CO2-humidified incubator. The murine conjunctive cells (NCTC clone 929, ATCC) were maintained in RPMI-1640 medium supplemented with 10% FBS at 37°C in a 5% CO2 –humidified incubator. Peritoneal macrophages, used for the amastigote assays, were obtained by washing the peritoneal cavity of BALB/c mice with RPMI-1640 medium supplemented with 10% FBS and were kept at 37°C in a 5% CO2-humidified incubator. To evaluate the activity against intracellular amastigotes, the peritoneal macrophages obtained from BALB/c mice were infected with trypomastigotes forms of T. cruzi. The macrophages were plated on a 16-well chamber slide (NUNC plate, Merck; 1 x 10^5/well) and incubated for 24 h at 37°C in a 5% CO2-humidified incubator. […] After 2 h of incubation at 37°C in a 5% CO2-humidified incubator, the non-internalized parasites were removed by washing with RPMI-1640 medium. Compounds 1–12 and 7a-7e were incubated by serial dilution (100–1.56 μM) with the infected macrophages (48 h at 37°C, 5% CO2) using benznidazole as the standard drug. At the end of the assay, slides were fixed with MeOH and stained with Giemsa prior to counting under a light microscope (EVOS M5000, THERMO). The EC50 values were calculated as previously described. EC50 and CC50 data represent the mean of two independent representative assays tested in duplicate and were calculated using sigmoid dose-response curves with Graph–Pad Prism 6.0 software (San Diego, CA, USA).

[2] = Cytotoxicity against mammalian cells, MTT assay (CC50); type: cell-based, murine; conditions: mouse
Method: Trypanosoma cruzi trypomastigotes (Y strain) were routinely maintained in Rhesus monkey kidney cells (LLC-MK2 –ATCC CCL 7), using RPMI-1640 medium supplemented with 2% FBS at 37°C in a 5% CO2-humidified incubator. The murine conjunctive cells (NCTC clone 929, ATCC) were maintained in RPMI-1640 medium supplemented with 10% FBS at 37°C in a 5% CO2 –humidified incubator. Peritoneal macrophages, used for the amastigote assays, were obtained by washing the peritoneal cavity of BALB/c mice with RPMI-1640 medium supplemented with 10% FBS and were kept at 37°C in a 5% CO2-humidified incubator.
The cytotoxicity assays were performed using NCTC cells-clone 929. The cells were counted, seeded (6 x 10^4 cells/well), and incubated with compounds 1–12 and 7a- 7e (200–1.56 μM—serial dilution) for 48 h at 37°C in a 5% CO2-humidified incubator. The optical density was determined using a FilterMax F5 (Molecular Devices) at 570 nm. The 50% cytotoxic concentration (CC50) values were determined by MTT assay. Selectivity index (SI) values were calculated using the ratio: CC50 against NCTC cells/EC50 against parasites form (amastigotes).
EC50 and CC50 data represent the mean of two independent representative assays tested in duplicate and were calculated using sigmoid dose-response curves with Graph–Pad Prism 6.0 software (San Diego, CA, USA).

[3] = tested on: T. cruzi amastigotes; conditions: cited from earlier work
[4] = tested on: mammalian cells; set-up: method as in PMID 31132603; conditions: cytotoxicity, previous work; cited from earlier work
[5] = intracellular amastigote forms of T. cruzi in BALB/c peritoneal macrophages, 100–1.56 μM
[6] = NCTC clone 929 cells, 48 h, MTT, 200–1.56 μM, read-out: CC50

Compound | EC50 [1, 5] [µM] | CC50 at 48 h [2, 6] [µM] | SI (selectivity index) [1] | also measured
CCOC(=O)C1CCC(=O)N1 (stereo in doubt) [Compound 1, ethyl (R)-pyroglutamate] | > 100 | > 200 |  | 
O=C(Cn1ccnc1[N+](=O)[O-])NCc1ccccc1 [Benznidazole, benznidazole, reference compound] | 18.7 ± 4.1 | > 200 | > 10.7 | 
O=Cc1c[nH]c2ccccc12 [Compound 2, indole-3-aldehyde] | > 100 |  |  | CC50 at 48 h [2]: > 200 µM
CC1=CC(=O)CC(C)(C)[C@@]1(O)/C=C/C(C)=C\C(=O)O [Compound 3, (+)-(S)-abscisic acid] |  | > 200 |  | EC50 [1]: > 100 µM
CC1(C)CC(O)CC(C)(O)/C1=C\C(=O)O (stereo not drawn) [Compound 4, 2Z-(2,4-dihydroxy-2,6,6-trimethylcyclohexylidene)acetic acid] | 28.2 ± 2.9 |  | > 7.1 | CC50 at 48 h [2]: > 200 µM
O=C(O)CCCCCCCC(=O)O [Compound 5, azelaic acid] | > 100 | > 200 |  | 
COc1cc(C(=O)O)ccc1O [Compound 6, vanillic acid] | > 100 | > 200 |  | 
CCOC(=O)c1ccc(O)c(O)c1 [Compound 7, ethyl protocatechuate] | 18.1 ± 0.3 | > 200 |  | 
COC(=O)c1ccc(O)c(O)c1 [Compound 7a] | > 100 | > 200 |  | EC50 ± SD [1, 5]: inactive
CCCOC(=O)c1ccc(O)c(O)c1 [Compound 7b] | 20.4 ± 4.2 | > 200 | > 9.8 | 
CCCCOC(=O)c1ccc(O)c(O)c1 [Compound 7c] | 19.4 ± 6.3 | > 200 | > 10.3 | 
CCCCCOC(=O)c1ccc(O)c(O)c1 [Compound 7d] | 12.3 ± 3.8 | > 200 | > 16.3 | 
CCCCCCOC(=O)c1ccc(O)c(O)c1 [Compound 7e] | 11.7 ± 2.7 | > 200 | > 17.1 | 
COc1cc2ccc(=O)oc2cc1O [Compound 8, scopoletin] | > 100 | > 200 |  | 
COc1cc(C(=O)[C@H](CO)c2ccc(O)c(OC)c2)ccc1O [Compound 9, (-)-evofolin B] | 27.8 ± 0.2 | > 200 | > 7.2 | 
COc1cc(/C=C/C(=O)NCCc2ccc(O)cc2)ccc1O [Compound 10, moupinamide] | > 100 | > 200 |  | 
COc1cc(C2OC(c3ccc(O)c(OC)c3)C(C)C2C)ccc1O (stereo not drawn) [Compound 11, verrucosin] | 36.8 ± 4.9 | > 200 | > 5.4 | 
COc1cc([C@H]2O[C@@H](c3ccc(O)c(OC)c3)[C@H](C)[C@@H]2C)ccc1O [Compound 12, nectandrin B] | 31 ± 0.3 | > 200 | > 6.4 | 
C=C1OC(=O)/C(=C\CCCCCCCCCCCCCCC)[C@H]1O [isolinderanolide E] |  |  |  | EC50 ([3]; amastigote forms of T. cruzi): 10.1 µM
CCCCCCCCOC(=O)c1ccc(O)c(O)c1 [n-octyl ester of protocatechuic acid] |  |  |  | EC50 ([3]; T. cruzi amastigotes): 13.9 µM; CC50 [4]: 108 µM
CCCCCCCCOC(=O)c1ccc(O)c(OC)c1 [n-octyl ester of vanillic acid] |  |  |  | EC50 ([3]; T. cruzi amastigotes): 6.8 µM
O=C(O)c1ccc(O)c(O)c1 [protocatechuic acid, reference compound] |  | > 200 |  | EC50 [1]: > 100 µM; EC50 ± SD [1, 5]: inactive
Isolinderanolide D |  |  |  | EC50 ([3]; amastigote forms of T. cruzi): 25.3 µM
